“And” between values parts separate entries of the source, which are not always exact repeats. Equal entries are not always repeated. ± gives the expanded uncertainty stated by the source.
Experiment: mn = molality of the nth substance listed, in mol/kg
Conditions: 100 kPa, Liquid; for speed of sound: Frequency=3 MHz, Single path-length method; for mass density: Vibrating tube method

Nc1ccc(S(=O)(=O)Nc2nccs2)cc1 [N-(2-thiazolyl)sulfanilamide] + O
Conditions | mass density, 288.15 K | mass density, 293.15 K | mass density, 298.15 K | mass density, 303.15 K | mass density, 308.15 K | speed of sound, 288.15 K [m/s] | speed of sound, 293.15 K [m/s] | speed of sound, 298.15 K [m/s] | speed of sound, 303.15 K [m/s] | speed of sound, 308.15 K [m/s]
m1 = 0.001 | 999.21 ± 0.49 kg/m3 | 998.28 ± 0.49 kg/m3 | 997.13 ± 0.49 kg/m3 | 995.71 ± 0.49 kg/m3 | 994.08 ± 0.49 kg/m3 | 1466.6 ± 1.8 | 1482.9 ± 1.9 | 1497.1 ± 1.9 | 1509.6 ± 1.9 | 1520.2 ± 1.9
m1 = 0.005 | 999.71 ± 0.49 kg/m3 | 998.79 ± 0.49 kg/m3 | 997.61 ± 0.49 kg/m3 | 996.18 ± 0.49 kg/m3 | 994.54 ± 0.49 kg/m3 | 1467.2 ± 1.8 | 1483.5 ± 1.9 | 1497.7 ± 1.9 | 1510 ± 1.9 | 1520.6 ± 1.9
m1 = 0.01 | 1000.27 ± 0.49 kg/m3 and 1000.33 ± 0.49 kg/m3 | 999.36 ± 0.5 kg/m3 and 999.41 ± 0.49 kg/m3 | 998.19 ± 0.5 kg/m3 and 998.23 ± 0.49 kg/m3 | 996.81 ± 0.49 kg/m3 and 996.77 ± 0.49 kg/m3 | 995.18 ± 0.49 kg/m3 and 995.14 ± 0.49 kg/m3 | 1468.5 ± 1.9 | 1484.5 ± 1.9 | 1498.7 ± 1.9 | 1510.7 ± 1.9 | 1521.7 ± 1.9

Reference: the NIST ThermoML archive (doi:10.1016/j.jct.2017.12.017)
